How the values were obtained:
[1] = system: MV4-11; assay: Induction of apoptosis in human MV4-11 cells assessed as necrotic cells at 0.2 uM measured after 48 hrs by Annexin V/7-AAD-dual staining based flow cytometric analysis (reference value: 0.3 %); format: functional
[2] = system: MV4-11; assay: Induction of apoptosis in human MV4-11 cells assessed as late apoptotic cells at 0.2 uM measured after 48 hrs by Annexin V/7-AAD-dual staining based flow cytometric analysis (reference value: 1.1 %); format: functional
[3] = system: MV4-11; assay: Induction of apoptosis in human MV4-11 cells assessed as viable cells at 0.2 uM measured after 48 hrs by Annexin V/7-AAD-dual staining based flow cytometric analysis (reference value: 96.4 %); format: functional; details: read-out: Activity
[4] = system: MV4-11; assay: Induction of apoptosis in human MV4-11 cells assessed as necrotic cells at 0.4 uM measured after 48 hrs by Annexin V/7-AAD-dual staining based flow cytometric analysis (reference value: 0.3 %); format: functional
[5] = biological target: T1, Polyamine deacetylase HDAC10 (Homo sapiens, UniProt Q969S8); assay: Inhibition of HDAC10 (unknown origin) incubated for 2 hrs by Multimode microplate reader analysis
T1 sequence (Q969S8 whole entry): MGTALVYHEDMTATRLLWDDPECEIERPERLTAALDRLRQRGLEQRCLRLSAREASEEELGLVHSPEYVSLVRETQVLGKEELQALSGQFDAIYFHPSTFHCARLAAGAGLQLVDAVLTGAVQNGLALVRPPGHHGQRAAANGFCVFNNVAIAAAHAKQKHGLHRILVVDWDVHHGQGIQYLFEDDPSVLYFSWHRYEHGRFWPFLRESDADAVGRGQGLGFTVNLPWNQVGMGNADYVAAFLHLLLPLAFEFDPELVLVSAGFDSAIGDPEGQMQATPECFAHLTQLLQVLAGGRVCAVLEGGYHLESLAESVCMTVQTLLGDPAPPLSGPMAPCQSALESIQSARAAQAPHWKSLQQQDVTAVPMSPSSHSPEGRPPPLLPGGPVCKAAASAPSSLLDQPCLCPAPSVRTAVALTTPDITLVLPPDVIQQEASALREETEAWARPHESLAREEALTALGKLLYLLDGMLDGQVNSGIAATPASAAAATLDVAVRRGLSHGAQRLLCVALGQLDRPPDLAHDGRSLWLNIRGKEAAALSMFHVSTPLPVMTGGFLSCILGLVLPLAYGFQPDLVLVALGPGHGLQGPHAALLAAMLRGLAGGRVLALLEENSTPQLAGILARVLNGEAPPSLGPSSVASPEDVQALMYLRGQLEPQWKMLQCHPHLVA

[6] = system: MV4-11; assay: Induction of apoptosis in human MV4-11 cells assessed as necrotic cells at 0.1 uM measured after 48 hrs by Annexin V/7-AAD-dual staining based flow cytometric analysis (reference value: 0.3 %); format: functional
[7] = organism: Homo sapiens; details: time 90.0 sec
[8] = biological target: T2, Protein deacetylase HDAC6 (Homo sapiens, UniProt Q9UBN7); assay: Inhibition of HDAC6 (unknown origin) preincubated for 5 mins followed by substrate addition and measured after 30 mins by multimode microplate reader analysis
T2 sequence (Q9UBN7 whole entry): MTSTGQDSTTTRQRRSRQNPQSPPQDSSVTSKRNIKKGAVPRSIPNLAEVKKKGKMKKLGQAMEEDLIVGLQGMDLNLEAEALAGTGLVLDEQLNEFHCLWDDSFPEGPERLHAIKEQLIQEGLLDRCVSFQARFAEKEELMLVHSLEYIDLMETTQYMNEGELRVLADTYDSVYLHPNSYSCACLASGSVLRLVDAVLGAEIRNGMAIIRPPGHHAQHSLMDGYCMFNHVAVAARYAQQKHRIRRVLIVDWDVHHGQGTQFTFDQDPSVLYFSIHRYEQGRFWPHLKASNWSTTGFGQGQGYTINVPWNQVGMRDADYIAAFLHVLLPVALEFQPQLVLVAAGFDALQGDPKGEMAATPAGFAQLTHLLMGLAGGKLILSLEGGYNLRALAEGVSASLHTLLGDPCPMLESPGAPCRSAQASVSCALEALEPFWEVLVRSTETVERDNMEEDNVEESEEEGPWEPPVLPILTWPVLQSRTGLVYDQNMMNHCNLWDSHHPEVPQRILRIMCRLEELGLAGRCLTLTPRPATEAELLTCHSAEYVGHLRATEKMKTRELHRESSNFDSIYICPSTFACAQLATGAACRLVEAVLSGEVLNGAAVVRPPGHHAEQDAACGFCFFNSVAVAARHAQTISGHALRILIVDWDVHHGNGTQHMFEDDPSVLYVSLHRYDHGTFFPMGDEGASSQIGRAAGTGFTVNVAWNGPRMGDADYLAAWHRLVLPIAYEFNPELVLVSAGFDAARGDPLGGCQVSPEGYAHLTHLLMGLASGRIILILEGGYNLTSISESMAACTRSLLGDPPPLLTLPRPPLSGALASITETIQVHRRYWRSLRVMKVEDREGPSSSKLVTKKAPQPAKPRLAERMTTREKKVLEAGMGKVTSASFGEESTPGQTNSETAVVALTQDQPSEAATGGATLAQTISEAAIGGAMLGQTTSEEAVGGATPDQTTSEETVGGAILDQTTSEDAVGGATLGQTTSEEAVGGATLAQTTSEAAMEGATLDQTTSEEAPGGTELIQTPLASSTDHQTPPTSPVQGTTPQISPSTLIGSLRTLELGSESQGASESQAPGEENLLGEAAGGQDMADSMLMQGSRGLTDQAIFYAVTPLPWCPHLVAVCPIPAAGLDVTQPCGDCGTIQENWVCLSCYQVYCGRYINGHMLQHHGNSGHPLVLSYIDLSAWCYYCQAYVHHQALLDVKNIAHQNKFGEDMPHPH

[9] = system: MV4-11; assay: Antitumor activity against human MV4-11 cells xenografted in BALB/c nude mouse assessed as tumor growth inhibition at 50 mg/kg, ip administered for 20 days in presence of by vernier caliper analysis; format: functional; details: MV4-11, 480 h, time 20 day, read-out: TGI
[10] = system: MV4-11; assay: animal or person; format: functional, Homo sapiens; details: Mus musculus, MV4-11, 480 h, route ip, time 20 day, read-out: TGI
[11] = system: MV4-11; assay: Induction of mitochondrial membrane potential in human MV4-11 cells assessed as reduction in red fluorescence intensity at 0.1 uM measured after 48 hrs by JC1 staining-based flow cytometry analysis (reference value: 98.8%); format: functional; parameters: scale not given: the % may be the effect or the level left
[12] = system: MV4-11; assay: Induction of mitochondrial membrane potential in human MV4-11 cells assessed as reduction in red fluorescence intensity at 0.2 uM measured after 48 hrs by JC1 staining-based flow cytometry analysis (reference value: 98.8%); format: functional; parameters: scale not given: the % may be the effect or the level left
[13] = system: MV4-11; assay: Induction of apoptosis in human MV4-11 cells assessed as early apoptotic cells at 0.4 uM measured after 48 hrs by Annexin V/7-AAD-dual staining based flow cytometric analysis (reference value: 2.2 %); format: functional
[14] = system: MV4-11; assay: Induction of apoptosis in human MV4-11 cells assessed as late apoptotic cells at 0.4 uM measured after 48 hrs by Annexin V/7-AAD-dual staining based flow cytometric analysis (reference value: 1.1 %); format: functional

## Cc1cc(C)c(CNC(=O)c2cc(-c3ccc(N4CCN(c5ncc(C(=O)NO)cn5)CC4)nc3)cc3c2cnn3C(C)C)c(=O)[nH]1
[1]
  Activity: 2%
[2]
  Activity: 11.1%
[3]
  viability at 0.2 µM: 74%
[4]
  Activity: 0.1%
[5]
  IC50: 1470 nM
[6]
  Activity: 1.9%
[7]
  Ka: 2.18 10^5/M/s
[8]
  IC50: 700 nM
[9]
  inhibition in vivo at 50 mg/kg: 65.7%
[10]
  inhibition in vivo at 100 mg/kg: 82%
[11]
  Activity: 92.9%
[12]
  Activity: 84.3%
[13]
  Activity: 23.3%
[14]
  Activity: 17.1%

— ChEMBL document CHEMBL5108052, “Histone Deacetylase and Enhancer of Zeste Homologue 2 Dual Inhibitors Presenting a Synergistic Effect for the Treatment of Hematological Malignancies” (J Med Chem, 2022)
